Assays:
NCI-H226 = assay: Growth inhibition of human NCI-H226 cells assessed as cell growth at 5X10'-6 M after 48 hrs by sulforhodamine B assay; format: functional; details: NCI-H226, 48 h, read-out: Activity
SF-268 [1] = assay: Growth inhibition of human SF268 cells assessed as cell growth at 5X10'-7 M after 48 hrs by sulforhodamine B assay; format: functional; details: SF-268, 48 h, read-out: Activity
OVCAR-4 [2] = assay: Growth inhibition of human OVCAR4 cells assessed as cell growth at 5X10'-9 M after 48 hrs by sulforhodamine B assay; format: functional; details: OVCAR-4, 48 h, read-out: Activity
ACHN [3] = assay: Growth inhibition of human ACHN cells assessed as cell growth at 5X10'-8 M after 48 hrs by sulforhodamine B assay; format: functional; details: read-out: Activity
LOX IMVI = assay: Growth inhibition of human LOXIMVI cells after 48 hrs by sulforhodamine B assay; format: functional
RXF 393 [4] = assay: Growth inhibition of human RXF393 cells assessed as cell growth at 5X10'-8 M after 48 hrs by sulforhodamine B assay; format: functional; details: RXF 393, 48 h, read-out: Activity
UO-31 = assay: Growth inhibition of human UO31 cells after 48 hrs by sulforhodamine B assay; format: functional; details: UO-31, 48 h; for CC50: read-out: LC50 (the source's name)
[5] = Growth inhibition of human Hs 578T cells assessed as cell growth at 5X10'-9 M after 48 hrs by sulforhodamine B assay; format: functional; details: read-out: Activity
K562 [6] = assay: Growth inhibition of human K562 cells assessed as cell growth at 5X10'-7 M after 48 hrs by sulforhodamine B assay; format: functional; details: K562, 48 h, read-out: Activity
M14 [7] = assay: Growth inhibition of human M14 cells assessed as cell growth at 5X10'-7 M after 48 hrs by sulforhodamine B assay; format: functional; details: M14, 48 h, read-out: Activity
SN12C = assay: Growth inhibition of human SN12C cells assessed as cell growth at 10 uM after 48 hrs by sulforhodamine B assay; format: functional; details: read-out: Activity
A498 = assay: Growth inhibition of human A498 cells assessed as cell growth at 5X10'-5 M after 48 hrs by sulforhodamine B assay; format: functional; details: A498, 48 h, read-out: Activity
NCI-H460 = assay: Growth inhibition of human NCI-H460 cells assessed as cell growth at 10 uM after 48 hrs by sulforhodamine B assay; format: functional; details: NCI-H460, 48 h, read-out: Activity
Malme-3M = assay: Growth inhibition of human MALME-3M cells assessed as cell growth at 5X10'-5 M after 48 hrs by sulforhodamine B assay; format: functional; details: read-out: Activity
SF-268 [8] = assay: Growth inhibition of human SF268 cells assessed as cell growth at 10 uM after 48 hrs by sulforhodamine B assay; format: functional; details: SF-268, 48 h, read-out: Activity
MDA-MB-231 = assay: Growth inhibition of human MDA-MB-231 cells assessed as cell growth at 5X10'-7 M after 48 hrs by sulforhodamine B assay; format: functional; details: MDA-MB-231, 48 h, read-out: Activity
RXF 393 [9] = assay: Growth inhibition of human RXF393 cells assessed as cell growth at 5X10'-9 M after 48 hrs by sulforhodamine B assay; format: functional; details: RXF 393, 48 h, read-out: Activity
MDA-MB-468 [10] = assay: Growth inhibition of human MDA-MB-468 cells after 48 hrs by sulforhodamine B assay; format: functional, cell-based; details: MDA-MB-468, 48 h; for CC50: read-out: LC50 (the source's name)
M14 [11] = assay: Growth inhibition of human M14 cells assessed as cell growth at 10 uM after 48 hrs by sulforhodamine B assay; format: functional; details: M14, 48 h, read-out: Activity
CCRF-CEM [12] = assay: Growth inhibition of human CCRF-CEM cells assessed as cell growth at 5X10'-6 M after 48 hrs by sulforhodamine B assay; format: functional; details: read-out: Activity
MDA-MB-468 [13] = assay: Growth inhibition of human MDA-MB-468 cells assessed as cell growth at 5X10'-8 M after 48 hrs by sulforhodamine B assay; format: functional; details: MDA-MB-468, 48 h, read-out: Activity
CCRF-CEM [14] = assay: Growth inhibition of human CCRF-CEM cells assessed as cell growth at 5X10'-9 M after 48 hrs by sulforhodamine B assay; format: functional; details: read-out: Activity
OVCAR-4 [15] = assay: Growth inhibition of human OVCAR4 cells after 48 hrs by sulforhodamine B assay; format: functional; details: OVCAR-4, 48 h
NCI-H322M = assay: Growth inhibition of human NCI-H322M cells after 48 hrs by sulforhodamine B assay; format: functional; details: for CC50: read-out: LC50 (the source's name)
HCT-116 [16] = assay: Growth inhibition of human HCT116 cells after 48 hrs by sulforhodamine B assay; format: functional; details: HCT-116, 48 h; for CC50: read-out: LC50 (the source's name)
K562 [17] = assay: Growth inhibition of human K562 cells assessed as cell growth at 5X10'-6 M after 48 hrs by sulforhodamine B assay; format: functional; details: K562, 48 h, read-out: Activity
HCT-116 [18] = assay: Growth inhibition of human HCT116 cells assessed as cell growth at 5X10'-9 M after 48 hrs by sulforhodamine B assay; format: functional; details: HCT-116, 48 h, read-out: Activity
NCI-H23 [19] = assay: Growth inhibition of human NCI-H23 cells assessed as cell growth at 5X10'-5 M after 48 hrs by sulforhodamine B assay; format: functional; details: NCI-H23, 48 h, read-out: Activity
PC-3 = assay: Growth inhibition of human PC3 cells after 48 hrs by sulforhodamine B assay; format: functional, cell-based; details: PC-3, 48 h; for CC50: read-out: LC50 (the source's name)
IGROV-1 = assay: Growth inhibition of human IGROV1 cells assessed as cell growth at 5X10'-7 M after 48 hrs by sulforhodamine B assay; format: functional; details: IGROV-1, 48 h, read-out: Activity
NCI-H23 [20] = assay: Growth inhibition of human NCI-H23 cells assessed as cell growth at 5X10'-9 M after 48 hrs by sulforhodamine B assay; format: functional; details: NCI-H23, 48 h, read-out: Activity
SNB-19 [21] = assay: Growth inhibition of human SNB19 cells assessed as cell growth at 5X10'-5 M after 48 hrs by sulforhodamine B assay; format: functional; details: SNB-19, 48 h, read-out: Activity
SNB-19 [22] = assay: Growth inhibition of human SNB19 cells after 48 hrs by sulforhodamine B assay; format: functional; details: SNB-19, 48 h
DU-145 = assay: Growth inhibition of human DU145 cells assessed as cell growth at 5X10'-7 M after 48 hrs by sulforhodamine B assay; format: functional; details: DU-145, 48 h, read-out: Activity
U-251 = assay: Growth inhibition of human U251 cells assessed as cell growth at 5X10'-6 M after 48 hrs by sulforhodamine B assay; format: functional; details: U-251, 48 h, read-out: Activity
ACHN [23] = assay: Growth inhibition of human ACHN cells assessed as cell growth at 5X10'-6 M after 48 hrs by sulforhodamine B assay; format: functional; details: read-out: Activity

With `O=C(Nc1cccc(-n2cc(-c3ccncc3)c(-c3ccc(Cl)c(O)c3)n2)c1)Nc1cc(C(F)(F)F)cc(C(F)(F)F)c1` the growth at 5 µM (NCI-H226) was 6%, the growth at 0.5 µM (SF-268 [1]) was 73% and the growth at 0.005 µM (OVCAR-4 [2]) was 95%. It also gave a growth at 0.05 µM (ACHN [3]) of 96%, a GI50 (LOX IMVI) of 712 nM and an LC50 (LOX IMVI) of 2750 nM. The TGI (LOX IMVI) was 1400 nM, the growth at 0.05 µM (RXF 393 [4]) was 89% and the GI50 (UO-31) was 647 nM. It also gave a TGI (UO-31) of 1900 nM, a CC50 (UO-31) of 6600 nM and a growth at 0.005 µM [5] of 97%. For the same compound, the growth at 0.5 µM (K562 [6]) was 46%, the growth at 0.5 µM (M14 [7]) was 59% and the growth at 10 µM (SN12C) was -36.1%. For the same compound, the growth at 50 µM (A498) was -95%, the growth at 10 µM (NCI-H460) was -55.7% and the growth at 50 µM (Malme-3M) was -64%. For the same compound, the growth at 10 µM (SF-268 [8]) was -36.4%, the growth at 0.5 µM (MDA-MB-231) was 74% and the growth at 0.005 µM (RXF 393 [9]) was 95%. It also gave a GI50 (MDA-MB-468 [10]) of 265 nM, an IC50 (MDA-MB-468 [10]) of 270 nM and a TGI (MDA-MB-468 [10]) of 2660 nM. The CC50 (MDA-MB-468 [10]) was 37100 nM, the growth at 10 µM (M14 [11]) was -37.2% and the growth at 5 µM (CCRF-CEM [12]) was 3%. It also gave a growth at 0.05 µM (MDA-MB-468 [13]) of 85%, a growth at 0.005 µM (CCRF-CEM [14]) of 95% and a GI50 (OVCAR-4 [15]) of 849 nM. The LC50 (concentration killing 50% of cells) (OVCAR-4 [15]) was 23900 nM, the TGI (OVCAR-4 [15]) was 5010 nM and the GI50 (NCI-H322M) was 1310 nM. It also gave a TGI (NCI-H322M) of 5390 nM, a CC50 (NCI-H322M) of 23600 nM and a GI50 (HCT-116 [16]) of 428 nM. The TGI (HCT-116 [16]) was 1110 nM, the CC50 (HCT-116 [16]) was 2650 nM and the growth at 5 µM (K562 [17]) was -5%. The growth at 0.005 µM (HCT-116 [18]) was 101%, the growth at 50 µM (NCI-H23 [19]) was -75% and the GI50 (PC-3) was 319 nM. For the same compound, the IC50 (PC-3) was 320 nM, the TGI (PC-3) was 4370 nM and the CC50 (PC-3) was > 50000 nM. For the same compound, the growth at 0.5 µM (IGROV-1) was 71%, the growth at 0.005 µM (NCI-H23 [20]) was 98% and the growth at 50 µM (SNB-19 [21]) was -47%. For the same compound, the GI50 (SNB-19 [22]) was 983 nM, the LC50 (concentration killing 50% of cells) (SNB-19 [22]) was > 50000 nM and the TGI (SNB-19 [22]) was 8960 nM. The growth at 0.5 µM (DU-145) was 80%, the growth at 5 µM (U-251) was -83% and the growth at 5 µM (ACHN [23]) was 2%.
With `COc1cc(-c2nn(-c3cccc(NC(=O)Nc4ccc(Cl)c(Cl)c4)c3)cc2-c2ccncc2)ccc1Cl` the growth at 5 µM (NCI-H226) was 8%, the growth at 0.5 µM (SF-268 [1]) was 89% and the growth at 0.005 µM (OVCAR-4 [2]) was 96%. The growth at 0.05 µM (ACHN [3]) was 98%, the GI50 (LOX IMVI) was 954 nM and the LC50 (LOX IMVI) was > 50000 nM. The TGI (LOX IMVI) was 2620 nM, the growth at 0.05 µM (RXF 393 [4]) was 94% and the GI50 (UO-31) was 845 nM. For the same compound, the TGI (UO-31) was 4980 nM, the CC50 (UO-31) was > 50000 nM and the growth at 0.005 µM [5] was 99%. The growth at 0.5 µM (K562 [6]) was 65%, the growth at 0.5 µM (M14 [7]) was 78% and the growth at 10 µM (SN12C) was 10.7%. The growth at 50 µM (A498) was -11%, the growth at 10 µM (NCI-H460) was 2.32% and the growth at 50 µM (Malme-3M) was -43%. It also gave a growth at 10 µM (SF-268 [8]) of 17.9%, a growth at 0.5 µM (MDA-MB-231) of 66% and a growth at 0.005 µM (RXF 393 [9]) of 97%. The GI50 (MDA-MB-468 [10]) was 567 nM, the IC50 (MDA-MB-468 [10]) was 570 nM and the TGI (MDA-MB-468 [10]) was 2270 nM. The CC50 (MDA-MB-468 [10]) was > 50000 nM, the growth at 10 µM (M14 [11]) was 0.29% and the growth at 5 µM (CCRF-CEM [12]) was -2%. It also gave a growth at 0.05 µM (MDA-MB-468 [13]) of 84%, a growth at 0.005 µM (CCRF-CEM [14]) of 101% and a GI50 (OVCAR-4 [15]) of 1290 nM. For the same compound, the LC50 (concentration killing 50% of cells) (OVCAR-4 [15]) was > 50000 nM, the TGI (OVCAR-4 [15]) was > 50000 nM and the GI50 (NCI-H322M) was 1690 nM. The TGI (NCI-H322M) was > 50000 nM, the CC50 (NCI-H322M) was > 50000 nM and the GI50 (HCT-116 [16]) was 1210 nM. For the same compound, the TGI (HCT-116 [16]) was > 50000 nM, the CC50 (HCT-116 [16]) was > 50000 nM and the growth at 5 µM (K562 [17]) was 5%. It also gave a growth at 0.005 µM (HCT-116 [18]) of 105%, a growth at 50 µM (NCI-H23 [19]) of -9% and a GI50 (PC-3) of 554 nM. For the same compound, the IC50 (PC-3) was 550 nM, the TGI (PC-3) was 2830 nM and the CC50 (PC-3) was > 50000 nM. The growth at 0.5 µM (IGROV-1) was 90%, the growth at 0.005 µM (NCI-H23 [20]) was 97% and the growth at 50 µM (SNB-19 [21]) was 15%. The GI50 (SNB-19 [22]) was 1720 nM, the LC50 (concentration killing 50% of cells) (SNB-19 [22]) was > 50000 nM and the TGI (SNB-19 [22]) was > 50000 nM. For the same compound, the growth at 0.5 µM (DU-145) was 90%, the growth at 5 µM (U-251) was -32% and the growth at 5 µM (ACHN [23]) was 3%.

From ChEMBL document CHEMBL2440076, “New triarylpyrazoles as broad-spectrum anticancer agents: design, synthesis, and biological evaluation” (Eur J Med Chem, 2013)
